# Measured values as given in paper PMC12615753, “Glutathione as a taste modulator: molecular mechanisms of interaction with umami and sweet taste receptors” (Food Chemistry: Molecular Sciences, 2025).
# Molecular target: T1, hTAS1R1 Y220A/rTAS1R3 (UniProt Q7RTX1+Q923K1, Y220A)
# T1 construct: UniProtKB number Q7RTX1–1); The cDNA coding region of rTAS1R3 was synthesized with optimized-codon usage for human expression; expressed in transfected cells; host or cells: HEK293T/17
# T1 sequence (Q7RTX1 21-841 Y220A): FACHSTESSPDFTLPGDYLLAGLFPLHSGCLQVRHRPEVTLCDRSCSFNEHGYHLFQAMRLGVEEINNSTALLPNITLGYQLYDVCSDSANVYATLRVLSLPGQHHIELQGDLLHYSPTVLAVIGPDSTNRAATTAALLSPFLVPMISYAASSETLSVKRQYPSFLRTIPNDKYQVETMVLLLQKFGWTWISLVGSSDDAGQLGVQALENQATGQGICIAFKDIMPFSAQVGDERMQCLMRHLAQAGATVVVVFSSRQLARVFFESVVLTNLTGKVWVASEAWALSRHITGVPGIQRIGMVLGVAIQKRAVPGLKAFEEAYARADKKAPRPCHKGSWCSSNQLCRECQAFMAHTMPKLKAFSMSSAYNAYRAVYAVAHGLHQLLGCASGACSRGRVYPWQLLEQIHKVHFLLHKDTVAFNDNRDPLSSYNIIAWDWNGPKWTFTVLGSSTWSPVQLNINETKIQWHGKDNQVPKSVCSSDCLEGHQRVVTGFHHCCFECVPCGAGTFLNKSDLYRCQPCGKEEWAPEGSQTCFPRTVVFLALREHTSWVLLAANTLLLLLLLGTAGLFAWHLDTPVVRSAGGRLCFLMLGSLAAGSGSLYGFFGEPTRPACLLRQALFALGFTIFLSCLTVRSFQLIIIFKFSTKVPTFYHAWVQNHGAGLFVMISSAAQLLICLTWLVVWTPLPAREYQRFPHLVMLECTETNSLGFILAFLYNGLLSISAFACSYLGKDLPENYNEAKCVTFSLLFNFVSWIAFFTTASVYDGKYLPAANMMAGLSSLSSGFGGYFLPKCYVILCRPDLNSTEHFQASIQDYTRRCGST
# T1 sequence (Q923K1 21-858): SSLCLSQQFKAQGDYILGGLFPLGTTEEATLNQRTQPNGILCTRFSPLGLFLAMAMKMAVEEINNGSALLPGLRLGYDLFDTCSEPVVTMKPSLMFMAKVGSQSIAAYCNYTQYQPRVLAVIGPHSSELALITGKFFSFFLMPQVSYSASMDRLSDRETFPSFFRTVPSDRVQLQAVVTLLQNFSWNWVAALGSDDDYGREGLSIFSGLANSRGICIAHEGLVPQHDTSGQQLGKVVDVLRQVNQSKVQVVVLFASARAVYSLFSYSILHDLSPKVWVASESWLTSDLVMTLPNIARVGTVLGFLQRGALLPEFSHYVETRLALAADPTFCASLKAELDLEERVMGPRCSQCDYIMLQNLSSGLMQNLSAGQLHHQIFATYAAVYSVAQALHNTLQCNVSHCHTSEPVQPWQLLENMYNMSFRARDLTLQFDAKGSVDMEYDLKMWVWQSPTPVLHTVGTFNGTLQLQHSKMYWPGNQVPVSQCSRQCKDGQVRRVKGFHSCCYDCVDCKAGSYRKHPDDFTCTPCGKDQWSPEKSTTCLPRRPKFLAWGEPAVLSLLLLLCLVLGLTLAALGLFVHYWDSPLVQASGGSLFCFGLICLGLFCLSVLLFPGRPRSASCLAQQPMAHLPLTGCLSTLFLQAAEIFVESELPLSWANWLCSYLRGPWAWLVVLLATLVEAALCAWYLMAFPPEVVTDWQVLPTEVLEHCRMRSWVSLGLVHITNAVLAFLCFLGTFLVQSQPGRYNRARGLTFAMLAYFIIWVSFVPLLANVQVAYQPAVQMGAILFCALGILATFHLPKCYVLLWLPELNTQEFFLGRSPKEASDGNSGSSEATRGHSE
# Test: Calcium assay, hTAS1R1 mutant co-expressed with rTAS1R3
# Format: cell-based, human, rat
# Conditions: for response to the agonist alone, vs WT: Y220A
# Description: Chimeric Gα proteins, such as Gα16Gust44, Gα16Gi3 or Gα15i2, are widely used in the functional expression of TAS1R receptors ([Backes et al., 2015]; [Suess et al., 2015]; [Toda et al., 2021], [Toda et al., 2013], [Toda et al., 2018]; [Zhang et al., 2008]). Chimeric Gα15i2 (([Toda et al., 2013]), Supplementary data) was generated by replacing the last five residues of the C-terminal tail of rat Gα15i2 (EINLL) (UniProt number G3V6N8; https://www.uniprot.org/uniprot/) with the counterpart sequence from human GNAI2 (DCGLF) (UniProt number P04899-1) and cloning into the pcDNA3.1/Hygro vector (Invitrogen, Thermo Fisher Scientific, Illkirch, France) between the HindIII and NotI restriction sites, resulting in the plasmid pcDNA3.1-Gα15i2. Chimeric Gα16Gust44 construct have already been reported ([Raliou et al., 2011]). Briefly, Gα16Gust44 was generated by replacing the C-terminal of Gα16 with the C-terminal 44 residues of gustducin. As previously described, hTAS1R1 was amplified from human fungiform papillae cDNA and cloned and inserted into pcDNA3 (Invitrogen), generating pcDNA3-TAS1R1-WT (wild-type) ([Raliou et al., 2011]). […] The cDNA coding region of rTAS1R3 was synthesized with optimized-codon usage for human expression (Genewiz) and was cloned and inserted into the mammalian pcDNA4/myc-HisA (Invitrogen) expression vector between the EcoRI and NotI restriction sites, resulting in the plasmid pcDNA4-rTAS1R3. […] The sequence integrity of all the plasmid constructs was verified via automated DNA sequencing (Genewiz).
# The hTAS1R1 mutants were co-expressed with the rTAS1R3 subunit in HEK293 cells. […] As a control, the functionality of the mutated receptors was checked after stimulation with S807 (Fig. S8), which interacts with TAS1R1-TMD ([Zhang et al., 2008]).
SMILES,EC50,"response to the agonist alone, vs WT"
"N[C@@H](CCC(=O)N[C@@H](CS)C(=O)NCC(=O)O)C(=O)O [GSH, γ-L-glutamyl-L-cysteinyl-glycine]",> 30 mM,fully abolished
"N[C@@H](CCC(=O)O)C(=O)O [L-Glu, L-glutamic acid, reference compound]",,completely suppressed
"CCCC(CCC)NC(=O)c1ccc2c(c1)OCO2 [S807, N-(heptan-4-yl)benzo[d][1,3]dioxole-5-carboxamide, reference compound]",,strongly affected
